According to US7528128B2, “Pyrrolo[2,1-C][1,4]benzodiazepine hybrids and a process for the preparation thereof” (Council of Scientific & Industrial Research, priority 2006, dated 2009):
Converted amounts (≈) assume the structure as drawn.

Assays:
[1] = system: Colo205 (colon); assay: In vitro cytotoxicity, 48 h continuous drug exposure; format: cell-based, human; details: for Activity status in terms of IC50 value: Colo205, Colon; for cell growth by %: Colo205, relative to untreated control cells
Procedure: (§1) In vitro evaluation of cytotoxic activity. The compound 5a, 5b, 5g, 5i and 5j were evaluated for in vitro anticancer activity against nine human tumour cells derived from six cancer types (colon, prostate, oral, lung, cervix and breast cancer) as shown in Table 3. […] Compounds 5a, 5b, 5g, 5i and 5j have been evaluated for their in vitro cytotoxicity in selected human cancer cell lines of colon (Colo205), lung (Hop-62), cervix (SiHa), prostate (DU145, PC3), oral (DWD, HT1080), and breast (MCF7, Zr-75-1) origin. A protocol of 48 h continuous drug exposure has been used and an […] has been used to estimate cell viability or growth. […] Compound 5a, Colo205 cell growth by 83%, DU145 cell growth by 84%, DWD cell growth by 70%, Hop62 cell growth by 87%, HT1080 cell growth by 80%, MCF7 cell growth by 73%, PC3 cell growth by 91%, SiHa cell growth by 67%, Zr-75-1 cell growth by 76%. Compound 5b, Colo205 cell growth by 20%, DU145 cell growth by 64%, DWD cell growth by 70%, Hop62 cell growth by 78%, HT1080 cell growth by 72%, MCF7 cell growth by 69%, PC3 cell growth by 72%, SiHa cell growth by 20%, Zr-75-1 cell growth by 20%. Compound 5g, Colo205 cell growth by 50%, DU145 cell growth by 20%, DWD cell growth by 94%, Hop62 cell growth by 84%, HT1080 cell growth by 94%, MCF7 cell growth by 71%, PC3 cell growth by 86%, SiHa cell growth by 74%, Zr-75-1 cell growth by 72%. Compound 5i, DU145 cell growth by 42%, Hop62 cell growth by 60%, HT1080 cell growth by 70%, Compound 5j, Colo205 cell growth by 44%, DU145 cell growth by 57%, DWD cell growth by 65%, Hop62 cell growth by 53%, HT1080 cell growth by 71%, PC3 cell growth by 81%, SiHa cell growth by 77%.

[2] = system: DU145 (prostate); assay: as above; format: cell-based, human; details: for Activity status in terms of IC50 value: DU145, Prostate; for cell growth by %: DU145, relative to untreated control cells
Procedure: as §1

[3] = system: DWD (oral); assay: as above; format: cell-based, human; details: for cell growth by %: relative to untreated control cells
Procedure: as §1

[4] = system: HT1080 (oral); assay: as above; format: cell-based, human; details: for Activity status in terms of IC50 value: HT1080, Oral; for cell growth by %: HT1080, relative to untreated control cells
Procedure: as §1

[5] = system: Hop62 (lung); assay: as above; format: cell-based, human; details: for Activity status in terms of IC50 value: Hop62, Lung; for cell growth by %: Hop62, relative to untreated control cells
Procedure: as §1

[6] = system: MCF7 (breast); assay: as above; format: cell-based, human; details: for cell growth by %: MCF7, relative to untreated control cells
Procedure: as §1

[7] = system: PC3 (prostate); assay: as above; format: cell-based, human; details: for cell growth by %: PC3, relative to untreated control cells
Procedure: as §1

[8] = system: SiHa (cervix); assay: as above; format: cell-based, human; details: for cell growth by %: relative to untreated control cells
Procedure: as §1

[9] = system: Zr-75-1 (breast); assay: as above; format: cell-based, human; details: for cell growth by %: Zr-75-1, relative to untreated control cells
Procedure: as §1

[10] = system: duplex-form calf thymus DNA (CT-DNA); assay: Thermal denaturation studies with CT-DNA; format: binding; details: for ΔTm after incubation at 37° C. for 0 h / ΔTm after incubation at 37° C. for 18 h / ΔTm after incubation at 37° C. for 36 h: [PBD]:[DNA] 1:5, CT-DNA 100 μM, ligand 20 μM; for ΔTm after incubation at 37° C. for 0 h: pH 7.00, 0 h; for ΔTm after incubation at 37° C. for 18 h: pH 7.00, 18 h; for ΔTm after incubation at 37° C. for 36 h: pH 7.00, 36 h; for course of ΔTm over 0 hr, 18 hr and 36 hr (in words): incubation at 37° C.
Procedure: Compounds were subjected to thermal denaturation studies with duplex-form calf thymus DNA (CT-DNA) using an adaptation of a reported procedure. Working solutions in aqueous buffer (10 mM NaH2PO4/Na2HPO4, 1 mM Na2EDTA, pH 7.00+0.01) containing CT-DNA (100 μm in phosphate) and the PBD (20 μm) were prepared by addition of concentrated PBD solutions in DMSO to obtain a fixed [PBD]/[DNA] molar ratio of 1:5. The DNA-PBD solutions were incubated at 37° C. for 0, 18, and 36 h prior to analysis. Samples were monitored at 260 nm using a Beckman DU-7400 spectrophotometer fitted with high performance temperature controller, and heating was applied at 1° C. min−1 in the 40-90° C. range. DNA helix coil transition temperatures (Tm) were obtained from the maxima in the (dA260)/dT derivative plots. Results are given as the mean ±standard deviation from three determinations and are corrected for the effects of DMSO co-solvent using a linear correction term. Drug-induced alterations in DNA melting behaviour are given by: ΔTm=Tm(DNA+PBD)−Tm (DNA alone), where the Tm value for the PBD-free CT-DNA is 69.0±0.01.

[11] = system: selected human cancer cell lines; assay: In vitro cytotoxicity in selected human cancer cell lines (overall statements); format: cell-based; details: Table 3
Procedure: as §1

Molecule | Activity status in terms of IC50 value [1] | cell growth by % [1] | Activity status in terms of IC50 value [2] | cell growth by % [2] | Activity status in terms of IC50 value ([3]; Oral) | cell growth by % [3] | Activity status in terms of IC50 value [4] | cell growth by % [4] | Activity status in terms of IC50 value [5] | cell growth by % [5] | Activity status in terms of IC50 value ([6]; MCF7, Breast) | Activity status in terms of IC50 value ([7]; PC3, Prostate) | cell growth by % [7] | Activity status in terms of IC50 value ([8]; Cervix) | cell growth by % [8] | Activity status in terms of IC50 value ([9]; Zr-75-1, Breast) | ΔTm after incubation at 37° C. for 0 h [10] | ΔTm after incubation at 37° C. for 18 h [10] | ΔTm after incubation at 37° C. for 36 h [10] | course of ΔTm over 0 hr, 18 hr and 36 hr (in words) [10] | further results
7-methoxy-8-{3-[2-benzoyl-(4,6-dichlorophenyloxy)propoxy]}-(11aS)-1,2,3,11a-tetra hydro-5H-pyrrolo[2,1-c][1,4]benzodiazepine-5-one [Compound 5g] | 50 µg/mL | 50% | 80 µg/mL | 20% | 6 µg/mL | 94% | 6 µg/mL | 94% | 16 µg/mL | 84% | 29 µg/mL | 14 µg/mL | 86% | 26 µg/mL | 74% | 28 µg/mL | 1.4 °C | 1.6 °C | 2.3 °C | gradually increased | cell growth by % [6]: 71%; cell growth by % [9]: 72%; cytotoxicity against some cancer cell lines (in words) [11]: promising cytotoxicity
7-methoxy-8-{3-[2-benzoyl-(4-chlorophenyloxy)propoxy]}-(11aS)-1,2,3,11a-tetrahydro-5H-pyrrolo[2,1-c][1,4]benzodiazepine-5-one [Compound 5a] | 17 µg/mL | 83% | 16 µg/mL | 84% | 30 µg/mL | 70% | 20 µg/mL | 80% | 13 µg/mL | 87% | 27 µg/mL | 9 µg/mL | 91% | 43 µg/mL | 67% | 24 µg/mL | 1.4 °C | 1.7 °C | 2.2 °C | gradually increased | cell growth by % [6]: 73%; cell growth by % [9]: 76%; cytotoxicity against some cancer cell lines (in words) [11]: promising cytotoxicity
COc1cccc2c1C(=O)c1c(O)c3c(c(O)c1C2=O)C[C@@](O)(C(=O)CO)C[C@@H]3O[C@H]1C[C@H](N)[C@H](O)[C@H](C)O1 [ADR, Adriamycin, reference compound] |  |  |  |  |  |  |  |  |  |  |  |  |  |  |  |  |  |  |  |  | IC50 ([1]; Homo sapiens, COLO 205, Colo205, Colon, read-out: Activity status in terms of IC50 value): 5 µg/mL (≈ 9.2 µM); IC50 ([2]; Homo sapiens, DU-145, DU145, Prostate, read-out: Activity status in terms of IC50 value): 6 µg/mL (≈ 11 µM); IC50 ([3]; Homo sapiens, Oral, read-out: Activity status in terms of IC50 value): 2 µg/mL (≈ 3.68 µM); IC50 ([4]; Homo sapiens, HT-1080, HT1080, Oral, read-out: Activity status in terms of IC50 value): 4 µg/mL (≈ 7.36 µM); IC50 ([5]; Homo sapiens, HOP-62, Hop62, Lung, read-out: Activity status in terms of IC50 value): 5 µg/mL (≈ 9.2 µM); IC50 ([6]; Homo sapiens, MCF7, Breast, read-out: Activity status in terms of IC50 value): 5 µg/mL (≈ 9.2 µM); IC50 ([7]; Homo sapiens, PC3, Prostate, read-out: Activity status in terms of IC50 value): 5 µg/mL (≈ 9.2 µM); IC50 ([8]; Homo sapiens, Cervix, read-out: Activity status in terms of IC50 value): 5 µg/mL (≈ 9.2 µM); IC50 ([9]; Homo sapiens, Zr-75-1, Breast, read-out: Activity status in terms of IC50 value): 5 µg/mL (≈ 9.2 µM)
COc1cc2c(cc1OCCCCCCOc1c(Cl)cc(Cl)cc1C(=O)c1ccccc1)N=C[C@@H]1CCCN1C2=O [Compound 5i, 7-methoxy-8-{3-[2-benzoyl-(4,6-di-chlorophenyloxy)hexyloxy]}-(11aS)-1,2,3,11a-tetrahydro-5H-pyrrolo[2,1-c][1,4]benzodiazepine-5-one] | >80 µg/mL |  | 58 µg/mL | 42% | >80 µg/mL |  | 30 µg/mL | 70% | 40 µg/mL | 60% | >80 µg/mL | >80 µg/mL |  | >80 µg/mL |  | >80 µg/mL | 1.5 °C | 1.9 °C | 2.6 °C | gradually increased | 
COc1cc2c(cc1OCC(=O)Nc1ccc(Cl)cc1C(=O)c1ccccc1Cl)N=C[C@@H]1CCCN1C2=O [Compound 5j, 7-Methoxy-8-{N1-[4-chloro-2-(2-chlorobenzoyl)phenyl]2-oxyacetamido}-(11aS)-1,2,3,11a-tetrahydro-5H-pyrrolo[2,1-c][1,4]benzodiazepine-5-one] | 56 µg/mL | 44% | 43 µg/mL | 57% | 35 µg/mL | 65% | 29 µg/mL | 71% | 47 µg/mL | 53% | 68 µg/mL | 19 µg/mL | 81% | 23 µg/mL | 77% | >80 µg/mL | 1.8 °C | 2.0 °C | 2.8 °C | gradually increased | 
COc1cc2c(cc1O)N=CC1CCCN1C2=O (stereo not drawn) [DC-81, reference compound] |  |  |  |  |  |  |  |  |  |  |  |  |  |  |  |  | 0.3 °C | 0.7 °C |  |  | 
